Test results published in paper PMC9913425, “Pentacyclic Triterpenoids-Based Ionic Compounds: Synthesis, Study of Structure–Antitumor Activity Relationship, Effects on Mitochondria and Activation of Signaling Pathways of Proliferation, Genome Reparation and Early Apoptosis” (Cancers, 2023).

Tests used:
A2780 = assay: In vitro cytotoxicity, IC50 by flow cytometry (Guava ViaCount); type: cell-based, human
In short: (§1)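 Suspension lines kept in RPMI 1640 with 10% FBS and […] at 37 °C, 5% CO2; cells seeded at 5 × 10^4 per well and incubated overnight before compound exposure. Viability counted by flow cytometry with Guava ViaCount staining to derive IC50.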

HL60 = assay: as above; type: cell-based, human
In short: as §1

[1] = system: mitochondria of Jurkat tumor cells; assay: Mitochondrial damage (MitoSense Red staining); type: cell-based; conditions: compound at IC50 concentration, incubation 2 h
STAT5 = assay: Luminex xMAP Multi-Pathway 9-plex, tyrosine-phosphorylated STAT5; type: cell-based; conditions: Jurkat cells; 12a 0.006 µM, 13d 0.004 µM per 100,000 cells; lasting up to 12 h
Description: The determination of proteins in a cell by Luminex xMAP technology is characterized by the presence of multiplex multiparametric analysis with the simultaneous use of a multiplex of antibodies with a fluorescent label and magnetic particles, thereby resulting in an increase in the sensitivity of the technique and expansion of the dynamic range, as well as an increase in detection accuracy. Luminex XMAP technology provides a simultaneous analysis of a sufficient number of different proteins in various types of biological fluids (plasma, serum, cerebrospinal fluid, follicular fluid, tissue lysate, etc.) and in cell supernatants. […]
Magnetic microspheres (stained inside with two fluorescent dyes) in combination with monoclonal antibodies against the analyzed analytes (the main intracellular kinases in this case) are incubated with the samples and standards; then, the samples/standards are incubated with biotinylated monoclonal antibodies against the analyzed analytes and, finally, with a solution of streptavidin–phycoerythrin. The Luminex technology identifies the different proteins present in each well and converts the mean fluorescence intensity (MFI) of each measured cytokine to pg/mL using software and standard curves. […]
The specific role of STAT3 and STAT5 was assessed by changes in the content of tyrosine-phosphorylated forms of these proteins (STAT3(ph) and STAT5(ph)). […]

Chk1 = assay: Luminex xMAP DNA Damage/Genotoxicity panel, phosphorylated Chk1; type: cell-based; conditions: Jurkat cells; 12a 0.006 µM, 13d 0.004 µM per 100,000 cells; 6 and 12 h
Description: [Worded in the source for another target; used here, by the source, with some conditions changed.] (§2) The determination of proteins in a cell by Luminex xMAP technology is characterized by the presence of multiplex multiparametric analysis with the simultaneous use of a multiplex of antibodies with a fluorescent label and magnetic particles, thereby resulting in an increase in the sensitivity of the technique and expansion of the dynamic range, as well as an increase in detection accuracy. Luminex XMAP technology provides a simultaneous analysis of a sufficient number of different proteins in various types of biological fluids (plasma, serum, cerebrospinal fluid, follicular fluid, tissue lysate, etc.) and in cell supernatants. Consequently, multiplexing saves time/costs and ensures the same conditions for the measurements, which is essential for significance and statistical processing.
(§3) Magnetic microspheres (stained inside with two fluorescent dyes) in combination with monoclonal antibodies against the analyzed analytes (the main intracellular kinases in this case) are incubated with the samples and standards; then, the samples/standards are incubated with biotinylated monoclonal antibodies against the analyzed analytes and, finally, with a solution of streptavidin–phycoerythrin. The Luminex technology identifies the different proteins present in each well and converts the mean fluorescence intensity (MFI) of each measured cytokine to pg/mL using software and standard curves. This approach is successfully applied in fundamental and clinical research. In this work, we analyzed various protein analytes that make up the phosphorylated and non-phosphorylated fractions of the main kinases in the signaling pathways: CREB, JNK, NFkB, p38, ERK1/2, Akt, p70S6K, STAT3, STAT5 proteins in six samples of lysates of Jurkat tumor cells by Luminex technology (MILLIPLEX® MAP 9-Plex Multi-Pathway 9-plex Magnetic Bead Kit).

Chk2 = assay: Luminex xMAP DNA Damage/Genotoxicity panel, phosphorylated Chk2; type: cell-based; conditions: Jurkat cells; 12a 0.006 µM, 13d 0.004 µM per 100,000 cells; 6 and 12 h
Description: [Worded in the source for another target; used here, by the source, with some conditions changed.] as §2, §3

γH2AX = assay: Luminex xMAP DNA Damage/Genotoxicity panel, phosphorylated γH2AX; type: cell-based; conditions: Jurkat cells; 6 and 12 h
Description: as §2, with “processing. Simultaneous measurement of cytokines by bead multiplex analysis has certain similarities with ELISA, in particular the use of antibodies, but has a fundamental difference in using magnetic fluorescent beads coupled to antikinase monoclonal antibodies.” for “processing.”
as §3
Phosphorylation of histone H2AX at serine 139 (γH2AX) is an early stage in the cellular response to DNA damage, when the damage brings about formation of a double-strand break (DSB). γH2AX foci, considered as markers of DNA double-strand breaks, are easily detected by immunofluorescence microscopy and flow cytometry. The two main signaling pathways ATM/Chk2 and ATR/Chk1 respond to DNA damage and both lead to H2AX phosphorylation, but the ATR/Chk1 pathway causes γH2AX formation to a much lesser extent. The role of γH2AX in DNA repair is also discussed.
Incubation time with the test compounds was 6 and 12 h. p < 0.001 (***).

p53 = assay: Luminex xMAP panel, p53 protein content; type: cell-based; conditions: Jurkat cells; 12a 0.006 µM, 13d 0.004 µM per 100,000 cells; first 6 h
Jurkat cells = assay: Cell cycle analysis (Guava Cell Cycle Reagent); type: cell-based; conditions: IC50 concentration, 24 h, flow histogram
Description: Our findings are consistent with the literature data that many ICs predominantly affect the G2 and S phases, reducing them.
The incubation time of ionic liquids with cells was 24 h. […] It is listed because the picture prints the label with values. / The fit parameters printed in each histogram (RMS, Mean G1, Mean G2, G2/G1, CV G1, CV G2) were left out as statistics of the cell-cycle model.

Row | SMILES | IC50 (A2780; Homo sapiens, A2780, A2780 cells) [nM] | IC50 (HL60; Homo sapiens, HL-60, HL60 cells) [nM] | Mito-Damage (%) [1] [%] | increase in the content of STAT5 (STAT5) [fold] | content of phosphorylated checkpoint kinase Chk1 (Chk1) | content of phosphorylated checkpoint kinase Chk2 (Chk2) | level of γH2AX (accumulation) (γH2AX) | expression of p53 protein (p53) | IC50 (A2780; A2780 cells) [nM] | IC50 (HL60; HL60 cells) [nM] | Freq Sub-G1 (hypodiploid cell population) (Jurkat cells) [%]
1 | CC1(C)CC[C@]2(C(=O)OCCCCCC[n+]3ccccc3)CC[C@]3(C)C(=CCC4[C@@]5(C)CC[C@H](O)C(C)(C)C5CC[C@]43C)C2C1 (stereo partly drawn) [12a, 1-(6-{[(3β)-3-Hydroxyolean-12-en-28-oyl]oxy}hexyl)-pyridinium bromide] | 21 ± 2 | 3 ± 1 | 97.89 | 3 | significantly decreases | significantly decreases | low levels | significantly increased |  |  | 
2 | CC(=O)[O-].C[n+]1ccn(CCCCCCOC(=O)[C@]23CCC(C)(C)CC2C2=CCC4[C@@]5(C)CC[C@H](O)C(C)(C)C5CC[C@@]4(C)[C@]2(C)CC3)c1 (stereo partly drawn) [13d, 1-(6-{[(3β)-3-Hydroxyolean-12-en-28-oyl]oxy}hexyl)-3-methylimidazolium Acetate] |  |  | 97.47 | 3 | significantly decreases | significantly decreases | low levels | significantly increased | 16 ± 2 | 2 ± 1 | 6.91
